How the values were obtained:
[1] = test system: RSV; test: 5 day model of RSV infection, treatments from day 1; assay type: in vivo, mice
[2] = test system: GC responsive genes; test: Topical (intranasal) PF670462 in naïve Balb/c mice, lung gene expression; assay type: in vivo; conditions: naïve Balb/C female mice; PF670462 0.6 μg intranasal 4 and 24 hours before post mortem
[3] = test system: RSV; test: RSV infection in Balb/C mice, PF670462 on days 3, 4 and 5; assay type: in vivo
[4] = test system: RSV; test: HDM allergen challenge with RSV infection in mice; assay type: in vivo; conditions: HDM allergen challenged mice infected with 2 million RSV virions 3 days prior to post mortem
Method: (§1) The conduct of the house dust mite allergy model with RSV complication was conducted as described herein and using the approaches described in Fuchs and Braun 2008 (Curr Drug Targets. 2008 June; 9(6):495-502).

[5] = test system: HDM allergen; test: House dust mite (HDM) allergen challenge in mice; assay type: in vivo
Method: as §1

[6] = Mock-treated mice, PF670462 ip, RT-qPCR
[7] = female Balb/C mice inoculated with RSV, Dex 1 mg/kg (i.p.)/day from day 1, PF670462 30 mg/kg days 3, 4 and 5

Question: How did the “Levels of IFN β” value [1] turn out when `Nc1nccc(-c2c(-c3ccc(F)cc3)ncn2C2CCCCC2)n1` [PF670462] was run?
Answer: Its value is “enhanced”.

Question: What about the “Levels of IFN λ 2” value [1] of the same compound?
Answer: Its value is “enhanced”.

Question: What about the “Levels of IFN λ 3” value [1] of the same compound?
Answer: Its value is “enhanced”.

Question: And the “TNFα expression in BAL cells when added to Dex treatment” value [1]?
Answer: Its value is “further effect”.

Question: And the “accumulation of inflammatory cells in the BAL fluid” value ([1]; administered from day 1)?
Answer: The value was “reduced”.

Question: What about the “TNFα expression levels in BAL cells” value ([1]; agent alone) of the same compound?
Answer: The value was “directly suppresses”.

Question: And the “effect on the GC responsive genes in lung tissue” value [2]?
Answer: The value was “direct stimulatory effect”.

Question: What about the “expression of CXCL5” value ([3]; FIG. 8B, during RSV infection) of the same compound?
Answer: Its value is “no effect alone”.

Question: And the “expression of KC” value ([3]; FIG. 8B, during RSV infection)?
Answer: Its value is “no effect alone”.

Question: And the “expression of TNFα” value ([3]; FIG. 8B, during RSV infection)?
Answer: Its value is “no effect alone”.

Question: And the “IFN expression (IFNα, IFNβ and IFNγ)” value ([3]; FIG. 8C, RSV treated mice, bronchoalveolar lavage cells and lung tissue, PF670462 given with Dex)?
Answer: The value was “prevented”.

Question: And the “expression of GILZ in lung tissue” value [3, 6]?
Answer: Its value is “directly stimulates”.

Question: What about the “expression of MKP1 in lung tissue” value [3, 6] of the same compound?
Answer: Its value is “neither Dex nor PF670462 alone increased expression”.

Question: And the “expression of ZBTB16 in lung tissue” value [3, 6]?
Answer: Its value is “directly stimulates”.

Question: What about the “bronchoalveolar lavage fluid (BALF) cellular content” value [3, 7] of the same compound?
Answer: The value was “no effect”.

Question: And the “bronchoalveolar lavage fluid (BALF) protein content” value [3, 7]?
Answer: The value was “no effect”.

Question: What about the BAL cell number [4] of the same compound?
Answer: The BAL cell number was “not significantly reduced”.

Question: What about the “increase in the BAL protein level” value ([5]; HDM allergen 25 μg/35 μL daily intranasal, aerosol PF670462 3 mg/ml, Budesonide 0.5 mg/ml) of the same compound?
Answer: The value was “regulated”.

Question: And the “Lymphocyte numbers in BAL” value ([5]; HDM allergen challenged mice, aerosol treatments)?
Answer: Its value is “reduced”.

— patent US11975005B2, “Treatment of respiratory diseases” (TIANLI BIOTECH PTY LTD, priority 2015, dated 2024)
